Results taken from US20080154102A1, “Intraoperative imaging methods” (priority 2006, published 2008).

Key:
[1] = system: coronary arteries and myocardium; test: Angiographic and myocardial perfusion imaging in rats; assay type: in vivo
Experimental: (§1) Male Sprague-Dawley, 300 g rats obtained from Charles River Laboratories (Wilmington, Mass.) were anesthetized with 65 mg/kg IP pentobarbital. 30 kg adult female Yorkshire pigs (E.M. Parsons & Sons, Hadley, Mass.) were induced with 4.4 mg/kg intramuscular Terazol (Fort Dodge Labs, Fort Dodge, Iowa). Pigs were intubated and maintained with 1.5-2% isoflurane.
(§2) In anesthetized rats, 0.1, 0.5 and 1 mg/kg MB were injected intravenously, and then images were taken during 15 min after injection. Signal to background ratio (SBR) (the signal of left anterior descending branch of coronary artery (LAD) relative to that of chest wall, and the signal of myocardium relative to that of chest wall) was quantified using the same region of interest (ROI) through entire observation. In anesthetized pigs, 100 μL/kg of 0.5% methylene blue (1.6 μmol/kg) was injected intravenously and then the hearts were observed using the imaging system described herein. For multi-wavelength fluorescence imaging, 0.25 ml of 100 μM ICG (75 nmol/kg) was injected intravenously in rats and 0.06 mg/kg ICG (75 nmol/kg) in pigs.
The system was adjusted to account for the optical properties of methylene blue. Briefly, the light source of the original system is composed of a white light source and a near-infrared light source. The surgical field is illuminated with both lights, and its excitation fluence rate is 5 mW/cm^2. White light and near-infrared images were able to be captured separately using a dichroic filter cube set, and these images could be merged. Images were captured and refreshed 15 times a second.
The system was modified in 3 ways for use with MB. First, the white lights were filtered with HQ675SP (Chroma Technology, Brattleboro, Vt.). Second, 4 pairs of 400 mA, 660 nm LEDs were added and filtered with HQ650/45X (chroma.) instead of the near-infrared light source. Excitation fluence rate with this new light source is 1 mW/cm^2. Third, the dichroic filter and emission filter were changed to 680 dcxr (chroma.), HQ700/35 (chroma.), respectively.

[2] = clinical use; cited from earlier work
[3] = system: common bile duct, vasculature, coronary artery, myocardium; test: Multi-wavelength fluorescence imaging with MB and ICG; assay type: in vivo, pigs; details: pig, ICG 800 nm, MB 700 nm
Experimental: Therefore, MB was used to visualize CBD in an anesthetized pig, while ICG was used to visualize vasculature.
To evaluate the possibility of multi-wavelength fluorescent imaging, ICG and methylene blue were used.
1 mg/kg methylene blue IV injection was followed 30 min after by 0.03 mg/kg ICG IV injection. […] NIR camera exposure time was 100 msec.
Next, one of the diagonal branches of the coronary artery (D2) was clamped (white arrow), and then 1 mg/kg of methylene blue was injected intravenously; see the second row of images. Just after releasing the clamp, 0.03 mg/kg ICG was injected intravenously. […] The right-most image in the second row was created by merging the image of the coronary arteriography using methylene blue at clamping D2 and the image using ICG after declamping D2.

[4] = system: common bile duct; test: Cholangiographic imaging with methylene blue in pigs; assay type: in vivo
Experimental: In anesthetized pigs, bile duct was visualized by intravenous injection of 100 μL/kg of 1% MB, or direct cannulation into the common bile duct for injection of 50 μM of MB. Fluorescence intensities of bile duct, liver (right lobe), and abdominal wall were measured at 3, 5, 10, 20, and 30 minutes following injection. For hepatic arteriography and portography, 0.06 mg/kg ICG (75 nmol/kg) is injected intravenously.

[5] = Fluorescence spectrometry and fluorescence quantum yield; assay type: physicochemical
Experimental: (§3) Absorbance spectrometry was performed with a 1-cm path length quartz cuvette in a USB2000 fiber-optic spectrometer (Ocean Optics, Dunedin, Fla.). Fluorescence spectrometry was performed with a 1-cm path length, 1.5 mL disposable methacrylate cuvette (Fisher Scientific, Hampton, N.H.) in a HR2000 fiber-optic spectrometer, and CUV-ALL-UV four-way cuvette holder (Ocean Optics), using a 655 nm laser diode light source (OPCOM O.E. Inc., Xiamen, China) with maximum output less than 5 mW. Data acquisition was performed with a computer using an OOI-Base32 spectrometer operating software package (Ocean Optics). The spectral range of the USB2000-FL spectrometer was from 350 to 1000 nm with spectral resolution of 7.6 nm, and that of the HR2000 spectrometer was from 200 to 1100 nm with a spectral resolution of 6.7 nm.
Fluorescence intensity was measured in each solvent (PBS, FBS, and methanol) at each concentration of the dye to determine the effect of the methylene blue concentration and solvents on total fluorescence yield. Fluorescence quantum yields of methylene blue in PBS, FBS, and methanol were calculated using oxazine725 in ethylene glycol (quantum yield: 19%) as a calibration standard, under the conditions of matched absorbance of methylene blue in each solvent.

[6] = system: coronary arteries and myocardium; test: Angiographic and myocardial perfusion imaging in pigs; assay type: in vivo
Experimental: as §1, §2
The system was adjusted to account for the optical properties of methylene blue. Briefly, the light source of the original system is composed of a white light source and a near-infrared light source. The surgical field is illuminated with both lights, and its excitation fluence rate is 5 mW/cm^2. […]

[7] = system: ureter; test: Ureteral mapping with methylene blue in pigs; assay type: in vivo; details: preclinical studies, in some cases
Experimental: In anesthetized 3 pigs, 1 mg/kg of methylene blue was injected intravenously and then the abdomen was opened surgically and ureter was identified by imaging. For pelvic arteriography, 0.06 mg/kg ICG (75 nmol/kg) was injected intravenously.

[8] = Environment-, concentration- and pH-dependence of MB fluorescence; assay type: physicochemical
Experimental: For the experiment shown in FIG. 1A, pure methylene blue powder was dissolved in phosphate-buffered saline (pH 7.4), 100% fetal bovine serum, or absolute methanol, at the concentration shown, and fluorescence intensity (arbitrary values) measured.
For this experiment, pure methylene blue powder was dissolved in PBS, FBS, or methanol, at the concentrations shown in FIGS. 1A-C, the spectrum of its absorbance and fluorescence emission obtained, and the peak of each identified.
Finally, the pH dependence of MB was examined, by dissolving MB in PBS (pH 6), Ascorbic Acid, HCl, and a NaHCO3-buffered solution. […] This is an important consideration because intermolecular quenching and internal absorption often limit the usable dose range of fluorescent contrast agents.

[9] = system: thoracic duct; test: Thoracic duct mapping in pigs; assay type: in vivo; details: 5 mL of 1% into inguinal lymph node
Experimental: In anesthetized pigs, 5 mL of 1% methylene blue was injected into an inguinal lymph node, then the thoracic duct was observed.

[10] = Absorbance spectrometry; assay type: physicochemical
Experimental: as §3

[11] = system: common bile duct; test: Cholangiographic imaging with methylene blue in rats; assay type: in vivo; details: 1 mg/kg iv
Experimental: In anesthetized rats, 100 μL/kg of 1% MB (1 mg/kg) was injected intravenously via penile vein. A simultaneous color video/NIR fluorescence intraoperative imaging system was employed for quantification of fluorescence images. For multi-wavelength fluorescence imaging, 0.25 ml of 100 uM ICG (75 nmol/kg) was injected intravenously in rat and hepatic arteriography and portography can be seen.

[12] = system: parathyroid gland; test: Parathyroid gland imaging using methylene blue; assay type: in vivo; details: 2 mg/kg over 15 minutes, along with NaHCO3
Experimental: To determine whether MB fluorescence emissions could be used to image the parathyroid gland, 2 mg/kg MB was administered over 15 minutes, along with NaHCO3, prior to surgery.

With `CN(C)c1ccc2nc3ccc(=[N+](C)C)cc-3sc2c1` [Methylene Blue, methylene blue] the “detection of peripheral branches and coronary vein” value [1] was “not detectable”, the “intravascular (arterial) signals” value ([1]; 0.1 mg/kg intravenously) was “not detected” and the “detection of coronary arteries” value ([1]; 0.5 and 1.0 mg/kg intravenously) was “could be detected”. For the same compound, the “homogenous signal from the heart wall” value ([1]; all loading doses) was “detectable”, the “dose that sometimes causes severe adverse reactions (methemoglobinaemia or anaphylaxis)” value [2] was 7.5 mg/kg and the “structure shown in two-channel NIR imaging” value [3] was “shows the CBD”. The “CBD visualization after direct retrograde administration” value ([4]; direct cannulation into CBD) was “successfully visualized the CBD”, the “identification of intrahepatic bile duct by fluorescence” value ([4]; during hepatic dissection) was “not identifiable” and the “detection of common bile duct” value ([4]; intravenous) was “detectable”. For the same compound, the “Emission Wavelength Maximum, (FBS)” value ([5]; in FBS) was 685 (685) nm, the “Fluorescence Quantum Yield, (FBS)” value ([5]; in FBS) was 2.5% and the “Emission Wavelength Maximum, PBS” value ([5]; in PBS) was 685 (685) nm. The “Fluorescence Quantum Yield, PBS” value ([5]; in PBS) was 5.5%, the “Emission Wavelength Maximum, [MtOH]” value ([5]; in methanol) was “[681] nm” and the “Fluorescence Quantum Yield, [MtOH]” value ([5]; in methanol) was “[9.5] %”. For the same compound, the “emission wavelength of MB” value ([5]; peak shifts as a function of dye concentration, listed as MB) was 690-700 nm, the “signal of myocardium distal to occlusion vs well-perfused myocardium” value ([6]; ligation of diagonal branch of left anterior descending artery) was “five-fold lower signal” and the “average SBR of whole heart wall fluorescence” value ([6]; pig, intravenous injection via external jugular vein) was “about 1.5”. For the same compound, the “performance in the ureter” value [7] was “less than optimal performance”, the “fluorescence in acidic solutions” value ([8]; Ascorbic Acid, HCl) was “essentially no fluorescence” and the “fluorescence at the more basic pH” value ([8]; PBS (pH 6), NaHCO3-buffered solution) was “significant fluorescence”. The “pH favoring the fluorescent methylene blue form” value ([8]; equilibrium with leucomethylene blue) was no less than 6, the “concentration of peak fluorescence intensity” value ([8]; intermediate concentrations) was 4 to 50 µM and the “thoracic duct in the color image” value [9] was “very faint blue color”. The “thoracic duct in the fluorescence image” value [9] was “clearly visualized in the fluorescence image”, the “Excitation Wavelength Maximum, (FBS)” value ([10]; in FBS) was 666 nm and the “Molar Extinction Coefficient, (FBS)” value ([10]; in FBS) was 86500 M⁻¹ cm⁻¹. For the same compound, the “Excitation Wavelength Maximum, PBS” value ([10]; in PBS) was 665 nm, the “Molar Extinction Coefficient, PBS” value ([10]; in PBS) was 71500 M⁻¹ cm⁻¹ and the “Excitation Wavelength Maximum, [MtOH]” value ([10]; in methanol) was “[653] nm”. The “Molar Extinction Coefficient, [MtOH]” value ([10]; in methanol) was “[71500] M^−1cm^−1”, the “dye stacking in the liver” value [11] was “No dye stacking in the liver was observed” and the “time of maximal ratio of CBD intensity relative to pancreas and liver” value [11] was “around 10 minutes”. The “time ratio of CBD intensity stayed steady after injection” value [11] was “at least 30 minutes”, the “time until CBD detectable after intravenous injection” value [11] was 2 to 3 min and the “visibility of the parathyroid” value [12] was “visible”.
